Assay results taken from US20250115583A1, “BICYCLIC INDAZOLE GLUCOCORTICOID RECEPTOR ANTAGONISTS” (Corcept Therapeutics Incorporated, priority 2021, published 2025).

What follows are compounds tested against glucocorticoid receptor (Homo sapiens (Human), UniProt P04150) (assay: HepG2 TAT assay: inhibition of dexamethasone-induced tyrosine aminotransferase (TAT) activity). Conditions: HepG2 cells, challenge of 100 nM dexamethasone, 18-24 hr; IC50 converted to Ki by Cheng and Prusoff equation.
Type: cell-based
In short: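 Cells lysed 15 min at 4 °C; TAT enzyme reaction 2 h at 37 °C, stopped with KOH, 30 min further at 37 °C. Inhibition fitted to 4-parameter logistic.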

Sequence of glucocorticoid receptor (P04150 whole entry): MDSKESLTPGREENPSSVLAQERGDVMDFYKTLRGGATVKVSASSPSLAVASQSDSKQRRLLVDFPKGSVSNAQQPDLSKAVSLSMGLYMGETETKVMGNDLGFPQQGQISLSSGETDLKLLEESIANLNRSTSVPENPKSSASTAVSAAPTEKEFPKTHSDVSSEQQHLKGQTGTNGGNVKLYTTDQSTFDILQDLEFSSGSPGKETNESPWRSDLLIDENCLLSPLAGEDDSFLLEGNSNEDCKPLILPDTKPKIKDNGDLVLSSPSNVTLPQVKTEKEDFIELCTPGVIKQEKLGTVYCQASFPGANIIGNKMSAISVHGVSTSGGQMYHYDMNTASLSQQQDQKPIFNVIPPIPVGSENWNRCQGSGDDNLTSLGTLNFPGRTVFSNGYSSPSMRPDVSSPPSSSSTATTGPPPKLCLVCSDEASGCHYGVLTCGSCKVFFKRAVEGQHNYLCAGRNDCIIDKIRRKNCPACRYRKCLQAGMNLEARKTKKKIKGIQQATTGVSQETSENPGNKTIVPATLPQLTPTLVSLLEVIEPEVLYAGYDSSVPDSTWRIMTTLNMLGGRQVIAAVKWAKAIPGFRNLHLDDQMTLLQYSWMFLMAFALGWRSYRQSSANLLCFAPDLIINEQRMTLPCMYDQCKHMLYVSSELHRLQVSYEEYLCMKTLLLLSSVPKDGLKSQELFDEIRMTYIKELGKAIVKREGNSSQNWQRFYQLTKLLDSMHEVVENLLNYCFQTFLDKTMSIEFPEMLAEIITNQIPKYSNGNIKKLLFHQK

| SMILES | Ki [nM] |
| --- | --- |
| Cc1csc(C(=O)N2C[C@@H]3[C@@H](c4ccccc4)[C@]3(c3cc4cnn(-c5ccc(F)cc5)c4cc3C)C2)n1 (stereo in doubt) [Example 175, (1-(1-(4-fluorophenyl)-6-methyl-1H-indazol-5-yl)-6-phenyl-3-azabicyclo[3.1.0]hexan-3-yl)(4-methylthiazol-2-yl)methanone] | 13 |
| Cc1cnc(C(=O)N2C[C@@H]3[C@@H](c4ccccc4)[C@]3(c3cc4cnn(-c5ccc(F)cc5)c4cc3C)C2)s1 (stereo in doubt) [Example 176, (1-(1-(4-fluorophenyl)-6-methyl-1H-indazol-5-yl)-6-phenyl-3-azabicyclo[3.1.0]hexan-3-yl)(5-methylthiazol-2-yl)methanone] | 45 |
| Cc1cc2c(cnn2-c2ccc(F)cc2)cc1[C@@]12CN(C(=O)c3cc(C)n(C)n3)C[C@@H]1[C@H]2c1ccccc1 (stereo in doubt) [Example 177, (1,5-dimethyl-1H-pyrazol-3-yl)(1-(1-(4-fluorophenyl)-6-methyl-1H-indazol-5-yl)-6-phenyl-3-azabicyclo[3.1.0]hexan-3-yl)methanone] | 23 |
| Cc1cc2c(cnn2-c2ccc(F)cc2)cc1[C@@]12CN(Cc3ccccn3)C[C@@H]1[C@H]2c1ccccc1 (stereo in doubt) [Example 179, 1-(4-fluorophenyl)-6-methyl-5-(6-phenyl-3-(pyridin-2-ylmethyl)-3-azabicyclo[3.1.0]hexan-1-yl)-1H-indazole] | 48 |
| Cc1cc2c(cnn2-c2ccc(F)cc2)cc1[C@@]12CN(C(=O)c3ccccc3)C[C@@H]1[C@H]2CN1CCOCC1 (stereo in doubt) [Example 180, (1-(1-(4-fluorophenyl)-6-methyl-1H-indazol-5-yl)-6-(morpholinomethyl)-3-azabicyclo[3.1.0]hexan-3-yl)(phenyl)methanone] | 600 |
| Cc1cc2c(cnn2-c2ccc(F)cc2)cc1[C@@]12CN(C(=O)c3ccccc3)C[C@@H]1[C@]2(C)c1ccccc1 (stereo in doubt) [Example 182, (1-(1-(4-fluorophenyl)-6-methyl-1H-indazol-5-yl)-6-methyl-6-phenyl-3-azabicyclo[3.1.0]hexan-3-yl)(phenyl)methanone] | 180 |
| Cc1cc2c(cnn2-c2ccc(F)cc2)cc1[C@@]12CN(C(=O)c3ccccc3)C[C@@H]1[C@@]2(C)c1ccccc1 (stereo in doubt) [Example 183, (1-(1-(4-fluorophenyl)-6-methyl-1H-indazol-5-yl)-6-methyl-6-phenyl-3-azabicyclo[3.1.0]hexan-3-yl)(phenyl)methanone] | 37 |
| Cc1cc2c(cnn2-c2ccc(F)cc2)cc1[C@@]12CN(C(=O)c3ccccc3)C[C@@H]1[C@H]2Cc1ccccc1 (stereo in doubt) [Example 184, (6-benzyl-1-(1-(4-fluorophenyl)-6-methyl-1H-indazol-5-yl)-3-azabicyclo[3.1.0]hexan-3-yl)(phenyl)methanone] | 860 |
| Cc1cc2c(cnn2-c2ccc(F)cc2)cc1[C@@]12CN(c3ncccn3)C[C@@H]1[C@H]2c1ccccc1 (stereo in doubt) [Example 185, 1-(4-fluorophenyl)-6-methyl-5-(6-phenyl-3-(pyrimidin-2-yl)-3-azabicyclo[3.1.0]hexan-1-yl)-1H-indazole] | 100 |
| Cc1cc2c(cnn2-c2ccc(F)cc2)cc1[C@]12CN(C(=O)c3ccccc3)C[C@H]1[C@H]2c1ccccn1 (stereo in doubt) [Example 186, (1-(1-(4-fluorophenyl)-6-methyl-1H-indazol-5-yl)-6-(pyridin-2-yl)-3-azabicyclo[3.1.0]hexan-3-yl)(phenyl)methanone] | 630 |
| Cc1cc2c(cnn2-c2ccc(F)cc2)cc1C12CC(=O)CC1CN(C(=O)OC(C)(C)C)C2 (stereo not shown) [Example 1, tert-butyl 3a-(1-(4-fluorophenyl)-6-methyl-1H-indazol-5-yl)-5-oxohexahydrocyclopenta[c]pyrrole-2(1H)-carboxylate] | 370 |
| Cc1cc2c(cnn2-c2ccc(F)cc2)cc1C12CN(S(=O)(=O)c3cnn(C)c3)CC1CC(O)(c1nccs1)C2 (stereo not shown) [Example 2, 3a-(1-(4-fluorophenyl)-6-methyl-1H-indazol-5-yl)-2-((1-methyl-1H-pyrazol-4-yl)sulfonyl)-5-(thiazol-2-yl)octahydrocyclopenta[c]pyrrol-5-ol] | 490 |
| COC1(c2nccs2)CC2CN(S(=O)(=O)c3cnn(C)c3)CC2(c2cc3cnn(-c4ccc(F)cc4)c3cc2C)C1 (stereo not shown) [Example 3, 2-(3a-(1-(4-fluorophenyl)-6-methyl-1H-indazol-5-yl)-5-methoxy-2-((1-methyl-1H-pyrazol-4-yl)sulfonyl)octahydrocyclopenta[c]pyrrol-5-yl)thiazole] | 290 |
| Cc1cc2c(cnn2-c2ccc(F)cc2)cc1C12CN(S(=O)(=O)c3cnn(C)c3)CC1CC(F)(c1ccccc1)C2 (stereo not shown) [Example 4, 5-(5-fluoro-2-((1-methyl-1H-pyrazol-4-yl)sulfonyl)-5-phenylhexahydrocyclopenta[c]pyrrol-3a(1H)-yl)-1-(4-fluorophenyl)-6-methyl-1H-indazole] | 540 |
| CO[C@]1(c2ccccc2)C[C@@H]2CN(S(=O)(=O)c3cnn(C)c3)C[C@]2(c2cc3cnn(-c4ccc(F)cc4)c3cc2C)C1 [Example 5, 1-(4-fluorophenyl)-5-((3aR,5R,6aS)-5-methoxy-2-((1-methyl-1H-pyrazol-4-yl)sulfonyl)-5-phenylhexahydrocyclopenta[c]pyrrol-3a(1H)-yl)-6-methyl-1H-indazole] | 240 |
| CO[C@@]1(c2ccccc2)C[C@H]2CN(S(=O)(=O)c3cnn(C)c3)C[C@@]2(c2cc3cnn(-c4ccc(F)cc4)c3cc2C)C1 [Example 6, 1-(4-fluorophenyl)-5-((3aS,5S,6aR)-5-methoxy-2-((1-methyl-1H-pyrazol-4-yl)sulfonyl)-5-phenylhexahydrocyclopenta[c]pyrrol-3a(1H)-yl)-6-methyl-1H-indazole] | 44 |
| CO[C@@]1(c2ccccc2)C[C@@H]2CN(S(=O)(=O)c3cnn(C)c3)C[C@]2(c2cc3cnn(-c4ccc(F)cc4)c3cc2C)C1 [Example 7, 1-(4-fluorophenyl)-5-((3aR,5S,6aS)-5-methoxy-2-((1-methyl-1H-pyrazol-4-yl)sulfonyl)-5-phenylhexahydrocyclopenta[c]pyrrol-3a(1H)-yl)-6-methyl-1H-indazole] | 350 |

| SMILES | Ki [nM] |
| --- | --- |
| CO[C@]1(c2ccccc2)C[C@H]2CN(S(=O)(=O)c3cnn(C)c3)C[C@@]2(c2cc3cnn(-c4ccc(F)cc4)c3cc2C)C1 [Example 8, 1-(4-fluorophenyl)-5-((3aS,5R,6aR)-5-methoxy-2-((1-methyl-1H-pyrazol-4-yl)sulfonyl)-5-phenylhexahydrocyclopenta[c]pyrrol-3a(1H)-yl)-6-methyl-1H-indazole] | 310 |
| Cc1cc2c(cnn2-c2ccc(F)cc2)cc1C12CN(S(C)(=O)=O)CC1CC(O)(c1ccccc1)C2 (stereo not shown) [Example 9] | 130 |
| Cc1cc2c(cnn2-c2ccc(F)cc2)cc1C12CN(S(=O)(=O)c3cnn(C)c3)CC1CC(O)(c1ccccc1)C2 (stereo not shown) [Example 10, 3a-(1-(4-fluorophenyl)-6-methyl-1H-indazol-5-yl)-2-((1-methyl-1H-pyrazol-4-yl)sulfonyl)-5-phenyloctahydrocyclopenta[c]pyrrol-5-ol] | 220 |
| COC1(c2ccccc2)CC2CN(S(=O)(=O)c3cnn(C)c3)CC2(c2cc3cnn(-c4ccc(F)cc4)c3cc2C)C1 (stereo not shown) [Example 11, 1-(4-Fluorophenyl)-5-(5-methoxy-2-((1-methyl-1H-pyrazol-4-yl)sulfonyl)-5-phenylhexahydrocyclopenta[c]pyrrol-3a(1H)-yl)-6-methyl-1H-indazole] | 33 |
| CCOC1(c2ccccc2)CC2CN(S(=O)(=O)c3cnn(C)c3)CC2(c2cc3cnn(-c4ccc(F)cc4)c3cc2C)C1 (stereo not shown) [Example 12] | 170 |
| COC1(c2ccccc2)CC2CN(S(C)(=O)=O)CC2(c2cc3cnn(-c4ccc(F)cc4)c3cc2C)C1 (stereo not shown) [Example 13] | 78 |
| COC1(c2cccc(C)c2)CC2CN(S(=O)(=O)c3cnn(C)c3)CC2(c2cc3cnn(-c4ccc(F)cc4)c3cc2C)C1 (stereo not shown) [Example 14] | 110 |
| Cc1cc2c(cnn2-c2ccc(F)cc2)cc1C12CN(S(=O)(=O)c3cnn(C)c3)CC1CC(O)(c1ccccn1)C2 (stereo not shown) [Example 15] | 330 |
| CC#CC1(OC)CC2CN(S(=O)(=O)c3cnn(C)c3)CC2(c2cc3cnn(-c4ccc(F)cc4)c3cc2C)C1 (stereo not shown) [Example 16] | 270 |
| Cc1cc2c(cnn2-c2ccc(F)cc2)cc1C12CN(C(=O)OC(C)(C)C)CC1CC(O)(c1ccccc1)C2 (stereo not shown) [Example 17, tert-butyl 3a-(1-(4-fluorophenyl)-6-methyl-1H-indazol-5-yl)-5-hydroxy-5-phenylhexahydrocyclopenta[c]pyrrole-2(1H)-carboxylate] | 42 |
| COC1(c2ccccc2)CC2CN(C(=O)OC(C)(C)C)CC2(c2cc3cnn(-c4ccc(F)cc4)c3cc2C)C1 (stereo not shown) [Example 18, tert-butyl 3a-(1-(4-fluorophenyl)-6-methyl-1H-indazol-5-yl)-5-methoxy-5-phenylhexahydrocyclopenta[c]pyrrole-2(1H)-carboxylate] | 44 |
| CCn1cc(S(=O)(=O)N2C[C@@H]3C[C@@](OC)(c4ccccc4)C[C@]3(c3cc4cnn(-c5ccc(F)cc5)c4cc3C)C2)cn1 [Example 21] | 37 |
| CCCn1cc(S(=O)(=O)N2C[C@@H]3C[C@](OC)(c4ccccc4)C[C@]3(c3cc4cnn(-c5ccc(F)cc5)c4cc3C)C2)cn1 [Example 22] | 32 |
| CO[C@@]1(c2ccccc2)C[C@H]2CN(S(=O)(=O)c3cnn(C(C)C)n3)C[C@@]2(c2cc3cnn(-c4ccc(F)cc4)c3cc2C)C1 [Example 23] | 30 |
| CO[C@@]1(c2ccccc2)C[C@H]2CN(S(=O)(=O)C3CC3)C[C@@]2(c2cc3cnn(-c4ccc(F)cc4)c3cc2C)C1 [Example 24] | 32 |
| CO[C@]1(c2ccccc2)C[C@@H]2CN(S(=O)(=O)c3cncc(F)c3)C[C@]2(c2cc3cnn(-c4ccc(F)cc4)c3cc2C)C1 [Example 25] | 52 |
| CCn1ncc(S(=O)(=O)N2CC3CC(OC)(c4ccccc4)CC3(c3cc4cnn(-c5ccc(F)cc5)c4cc3C)C2)n1 (stereo not shown) [Example 26] | 53 |
